Experimental data taken from PMC5805526, “ZB716, a steroidal selective estrogen receptor degrader (SERD), is orally efficacious in blocking tumor growth in mouse xenograft models” (Oncotarget, 2018).
“And” between values parts separate entries of the source, which are not always exact repeats. Equal values may be shown once. Read-outs that look alike come from different tables or passages of the source.

Experiments:
[1] = test system: MCF-7 breast cancer cells; experiment: MCF-7 cell growth inhibition; format: cell-based; conditions: Homo sapiens, MCF7, 120 h; 5 days treatment, cell count vs DMSO
Experimental: At the end of treatment, surviving cells were counted and normalized to control cells that were treated with vehicle (DMSO) only. (B) IC50 values were obtained by deriving logarithmic curves from the %cell survival vs. treatment dose plot.

[2] = test system: T47D/Y537S breast cancer cells; experiment: T47D/Y537S ESR1 mutant cell growth inhibition; format: cell-based; conditions: Homo sapiens, 120 h, 5 days treatment
Source text: Wild-type ESR1, the Y537S ESR1 mutant were fused to a FLAG tag at their C-termini and cloned into the lentiviral vector pFLRu-FH [30]. Y537S mutation was first introduced into ESR1 using the QuikChange II XL Site-Directed Mutagenesis Kit (Agilent) with an ESR1-encoding plasmid (Accession number NM_000125.1, GeneCopoeia Inc.) as the template. […] To make lentiviral particles, pFLRu-FH vector DNAs (encoding ESR1(wt) and ESR1(Y537S)) were cotransfected with the packaging plasmids into HEK293T cells using Fugene 6 (Roche). At 48 hours post transfection, culture media containing different viruses were added to T47D cells in the presence of polybrene followed by 3-day puromycin selection for stable expression.
Viable cell numbers were counted with a Z Series Coulter Counter instrument (Beckman-Coulter) following manufacturer's instructions. […] IC50 values were obtained from dose-response curves for all treatments.

[3] = test system: MCF-7 human breast cancer xenograft; experiment: Efficacy in MCF-7 xenograft tumor model; format: in vivo, Nu/Nu mice; conditions: ZB716 at both 10 mg/kg and 30 mg/kg by oral gavage, three weeks
Experimental: Four to six weeks old female ovariectomized Nu/Nu mice were purchased from Charles River Laboratories (Wilmington, MA). MCF-7 cells were cultured and harvested in the exponential growth phase using a PBS/EDTA solution. The animals were injected bilaterally in the mammary fat pad (MFP) with 5×10^6 viable cells suspended in 50 μL sterile PBS mixed with 100 μL Matrigel (reduced factor; BD Biosciences, Bed- ford, MA). 17b-Estradiol pellets (0.72 mg, 60 day release; Innovative Research of America, Sarasota, FL) were implanted subcutaneously in the lateral area of the neck using a precision trochar (10 gages) at the time of cell injection. Tumors were allowed to form and at day 15 post cell injection mice. […] Tumor sizes were monitored and recorded every other day for three weeks of treatment duration.

[4] = Drug concentrations in final plasma and tumor tissue of MCF-7 xenograft mice; format: in vivo; conditions: for concentration at 3 weeks: female, Nu/Nu, mouse, end of study
Experimental: (§1) The plasma samples of 100 μL each were processed for analysis by a TSQ UPLC-MS/MS system. Aliquots of 10 μL of 0.5 ng/μl E-Tamoxifen-2C^13, N^15, 200 μL methanol, and 400 μl chloroform were added to the plasma in a 1.5 mL centrifuge tube in sequence. The sample was vortexed and stored at −20°C for 4 hours, followed by sonication in a Branson B3510MT Ultrasonic Cleaners for 30 min and centrifuged at 12000 RPM on a Heraeus Fresco 21 Refrigerated Micro Centrifuge from Thermo Fisher Scientific for 10 min. The supernatant was dried with a nitrogen gas flow and suspended in 100 μL methanol. Aliquots of 10 μL of the above processed samples were injected into a TSQ Vantage mass spectrometer connected with a heated electrospray ionization probe and a Dionex Ultimat 3000 UHPLC with a Hypersil gold column (50×2.1 mm). The probe setting and front mass spectrometer setting were controlled as follows: spray voltage 3200 voltage, auxiliary gas 10psi, vaporizer temperature 365°C, capillary temperature 300°C, sheath gas 30psi, S-lens RF amplitude 51 voltage. The flow gradient was started with initial 30% mobile phase A of water with 0.05% formic acid to 1 min, to 100% mobile phase B of acetonitrile with 0.05% formic acid at 8 min, and return to 30% mobile phase A at 13 min.

[5] = Pharmacokinetic study in rats, single oral dose; format: in vivo, Sprague-Dawley rats; conditions: rat; for concentration at 1 h / concentration at 3 h / concentration at 6 h / concentration at 8 h / concentration at 24 h: oral, read-out: Rat plasma concentration of ZB716 after a single oral dose
Experimental: Female Sprague-Dawley rats, weighing between 350 and 400 g (Charles River Laboratories, Portage, MI) were used for the pharmacokinetic study on ZB716. Rats were given oral gavage containing 5% dimethyl sulfoxide (DMSO), 40% polyethylene glycol 400, 55% saline-dissolved ZB716, at doses ranging from 1 mg/kg to 20 mg/kg. After drug administration, blood samples were collected from the lateral tail vein of the rat at 1, 3, 6, 8, 24 h. Rat blood was collected with a capillary into 1.5 mL microcentrifuge tubes containing 0.01 mL of 10 % EDTA anticoagulant. Plasma was then separated from cell pellets by centrifugation in a refrigerated centrifuge at 4°C and transferred to a separate tube. Plasma samples were frozen at −80°C until analysis.
as §1

[6] = female, Sprague-Dawley, plasma, 1 mg/kg
[7] = female, Sprague-Dawley, plasma, 5 mg/kg
[8] = female, Sprague-Dawley, plasma, 10 mg/kg
[9] = female, Sprague-Dawley, plasma, 20 mg/kg

## C[C@]12CC[C@@H]3c4ccc(B(O)O)cc4C[C@@H](CCCCCCCCC[S+]([O-])CCCC(F)(F)C(F)(F)F)[C@H]3[C@@H]1CC[C@@H]2O (stereo partly drawn) [ZB716]
[1]
  IC50: 3.2 nM
[2]
  IC50: 24.4 nM
[3]
  tumor growth in MCF-7 xenograft: complete blockage of tumor growth
[4]; ZB716 10 mg/kg dose group
  drug accumulation in tumor tissue relative to fulvestrant treated mice: 4 fold
  final plasma concentration relative to fulvestrant treatment group: over 6 fold
[4]; ZB716 30 mg/kg dose group
  drug concentration in tumor tissue relative to fulvestrant treated mice: 10 fold
  final plasma concentration relative to fulvestrant treatment group: > 20 fold
[4]; plasma, treatment ZB716 10 mg/kg daily PO, read-out: Average concentration in final plasma
  concentration at 3 weeks: 182 ng/mL
[4]; plasma, treatment ZB716 30 mg/kg daily PO, read-out: Average concentration in final plasma
  concentration at 3 weeks: 692 ng/mL
[4]; tumor tissue, treatment ZB716 10 mg/kg daily PO, read-out: Average concentration in tumor tissue
  concentration at 3 weeks: 506 ng/mL
[4]; tumor tissue, treatment ZB716 30 mg/kg daily PO, read-out: Average concentration in tumor tissue
  concentration at 3 weeks: 1540 ng/mL
[5]; [6]
  concentration at 1 h: 14.8 ± 6.51 ng/mL
  concentration at 3 h: 9.23 ± 2.33 ng/mL
  concentration at 6 h: 4.7 ± 1.66 ng/mL
  concentration at 8 h: 4.42 ± 2.38 ng/mL
  concentration at 24 h: 1.36 ± 1.42 ng/mL
[5]; [7]
  concentration at 1 h: 46.5 ± 4.81 ng/mL
  concentration at 3 h: 23.4 ± 2.8 ng/mL
  concentration at 6 h: 15.9 ± 2.03 ng/mL
  concentration at 8 h: 11.4 ± 0.52 ng/mL
  concentration at 24 h: 9.37 ± 1.24 ng/mL
[5]; [8]
  concentration at 1 h: 218 ± 27.8 ng/mL
  concentration at 3 h: 93.6 ± 21.8 ng/mL
  concentration at 6 h: 62 ± 14.9 ng/mL
  concentration at 8 h: 60.7 ± 13.9 ng/mL
  concentration at 24 h: 33.1 ± 10.6 ng/mL
[5]; [9]
  concentration at 1 h: 1040 ± 153 ng/mL
  concentration at 3 h: 671 ± 125 ng/mL
  concentration at 6 h: 371 ± 111 ng/mL
  concentration at 8 h: 300 ± 118 ng/mL
  concentration at 24 h: 98.5 ± 36.1 ng/mL
[5]; female, Sprague-Dawley, plasma, all four oral doses (1, 5, 10, 20 mg/kg), read-out: time of peak concentration in rat plasma
  Tmax: 1 h
[5]; 20 mg/kg oral, 20 mg/kg
  peak plasma concentration: over 1000 ng/mL and > 1.6 μM
